We go through 25 molecules from patent US12649745B2, “Amino-pyrimidine cyclo-amides” (Hoffmann-La Roche Inc., priority 2020, dated 2026).

For orientation: IC50 means the point on the concentration scale where inhibition reaches its midpoint.

This experiment has as its target T1, human Autotaxin (ATX) (Homo sapiens, UniProt Q13822).
T1 construct: generate a full length human ENPP2 ORF with or without a 3′-6×His tag; 6xHis (C); made in house; host or cells: FreeStyle 293-F cells (transient transfection), purified from culture supernatant
The experiment is described as follows: Human ATX enzyme inhibition assay (LPC substrate, choline oxidase/HRP/Amplex Red coupled format). Particulars: recombinant hATX 1 nM, 18:1 LPC 30 μM, fluorescence at 90 mins minus 5 mins. Type of experiment: biochemical. The procedure:
Human ATX Enzyme Inhibition Assay
To identify inhibitors of the human Autotaxin (ATX) enzyme an in-vitro biochemical profiling assay has been developed using lysophosphatidylcholine (LPC) as substrate and recombinant enzyme. ATX activity is assayed via a coupled enzyme format where choline produced from LPC hydrolysis is converted to hydrogen peroxide by choline oxidase (CO). Hydrogen peroxide is in turn used as a co-substrate by horseradish peroxidase (HRP) to oxidise Amplex Red® and generate the red-fluorescent product, Resorufin.
50 mM Tris-HCl (pH 8.0); 120 mM NaCl; 20 mM CaCl2; 5 mM KCl; 1 mM MgCl2; 0.01% Triton X-100, sterile-filtered and stored at 4° C.
50 mM Tris-HCl (pH 8.0); 150 mM NaCl
human Autotaxin (hATX): 0.97 mg/ml (9.718 μM) Molecular weight 99817. Working solution of 1.5 μM used in this assay.
100 mM 18:1 LPC dissolved in reagent dilution-buffer.
500 U/ml Choline Oxidase in reagent dilution buffer.
2540 U/ml Horseradish Peroxidase, in reagent dilution buffer (10.95 mg/ml).
20 mM Amplex Red (10-Acetyl-3,7-dihydroxy-phenoxazin) in DMSO.
Black, 384-well plate, black with clear bottom, non-treated surface.
Test compounds are received pre-diluted in DMSO as an 11-point concentration-response (0.5 mM highest concentration; 1 in 3.162 dilution). Test compounds are pre-diluted 1:1 (10 μL compound+10 μL assay buffer) in a 96-well conical bottomed plate prior to use.
ATX is diluted to 2.2 nM in assay buffer. Choline oxidase and horseradish peroxidase are diluted to 7.3 U/ml and 14.7 U/ml, respectively. 18:1 LPC and Amplex Red® are diluted to 110 μM and 183.3 μM, respectively (solution protected from light). 2.2 μL of compound pre-dilution or 50% DMSO is added to the reaction plate followed by 25 μL of ATX or assay buffer (negative control). Assay plate is mixed and incubated at room temperature for 10 mins. 15 μL of choline oxidase/horseradish peroxidase is then added. To initiate the reaction 15 μL of LPC 18:1/Amplex Red is added. Assay plate is mixed and incubated at room temperature in the dark. Fluorescence is measured at 5 mins (for background subtraction) and 90 mins.
Final Assay Concentrations:
Horse Radish Peroxidase: 4 U/ml
Fluorescence at 5-minutes is subtracted from the 90-minute end point data and normalized with respect to the positive control. IC50 values are calculated.
Results in the enzymatic ATX inhibition assay are provided for compounds of formula (I).
In the case of `CN1Cc2nc(N[C@H]3Cc4cc(Cl)cc(C#N)c4C3)ncc2C1=O` [Example 23, (S)-6-chloro-2-((6-methyl-5-oxo-6,7-dihydro-5H-pyrrolo[3,4-d]pyrimidin-2-yl)amino)-2,3-dihydro-1H-indene-4-carbonitrile], the half-maximal inhibitory concentration (IC50) was found to be 3 nM.

Consider `N#Cc1cc(Cl)cc2c1C[C@@H](Nc1ncc3c(n1)CN(C1COC1)C3=O)C2` [Example 16, (S)-6-chloro-2-((6-(oxetan-3-yl)-5-oxo-6,7-dihydro-5H-pyrrolo[3,4-d]pyrimidin-2-yl)amino)-2,3-dihydro-1H-indene-4-carbonitrile], for which the IC50 was determined as 4 nM.

As for `N#Cc1cc(Cl)cc2c1C[C@@H](Nc1ncc3c(n1)CN(C1CC4(C1)CC(F)(F)C4)C3=O)C2` [Example 7, (S)-6-chloro-2-((6-(6,6-difluorospiro[3.3]heptan-2-yl)-5-oxo-6,7-dihydro-5H-pyrrolo[3,4-d]pyrimidin-2-yl)amino)-2,3-dihydro-1H-indene-4-carbonitrile], the half-maximal inhibitory concentration (IC50) is 3 nM.

Consider `CC1(N2Cc3nc(NC4Cc5ccc(Cl)cc5C4)ncc3C2=O)COC1` (stereo not shown) [Example 2, 2-((5-chloro-2,3-dihydro-1H-inden-2-yl)amino)-6-(3-methyloxetan-3-yl)-6,7-dihydro-5H-pyrrolo[3,4-d]pyrimidin-5-one], for which the half-maximal inhibitory concentration (IC50) was found to be 183 nM.

As to `N#Cc1cc(Cl)cc2c1C[C@@H](Nc1ncc3c(n1)CCN(C1COC1)C3=O)C2` [Example 17, (S)-6-chloro-2-((6-(oxetan-3-yl)-5-oxo-5,6,7,8-tetrahydropyrido[4,3-d]pyrimidin-2-yl)amino)-2,3-dihydro-1H-indene-4-carbonitrile], the IC50 was determined as 3 nM.

As to `N#Cc1cc(Cl)cc2c1C[C@@H](Nc1ncc3c(n1)CN(CCF)C3=O)C2` [Example 22, (S)-6-chloro-2-((6-(2-fluoroethyl)-5-oxo-6,7-dihydro-5H-pyrrolo[3,4-d]pyrimidin-2-yl)amino)-2,3-dihydro-1H-indene-4-carbonitrile], the IC50 turned out to be 2 nM.

Turning to `CC(=O)N1CCC(N2Cc3nc(N[C@H]4Cc5cc(Cl)cc(C#N)c5C4)ncc3C2=O)CC1` [Example 25, (S)-2-((6-(1-acetylpiperidin-4-yl)-5-oxo-6,7-dihydro-5H-pyrrolo[3,4-d]pyrimidin-2-yl)amino)-6-chloro-2,3-dihydro-1H-indene-4-carbonitrile], the IC50 was 6 nM.

With `N#Cc1cc(Cl)cc2c1C[C@@H](Nc1ncc3c(n1)CN(C1CC1)C3=O)C2` [Example 13, (S)-6-chloro-2-((6-cyclopropyl-5-oxo-6,7-dihydro-5H-pyrrolo[3,4-d]pyrimidin-2-yl)amino)-2,3-dihydro-1H-indene-4-carbonitrile], the IC50 is 2 nM.

`N#Cc1cc(Cl)cc2c1C[C@@H](Nc1ncc3c(n1)CN(CC1CC1)C3=O)C2` [Example 18, (S)-6-chloro-2-((6-(cyclopropylmethyl)-5-oxo-6,7-dihydro-5H-pyrrolo[3,4-d]pyrimidin-2-yl)amino)-2,3-dihydro-1H-indene-4-carbonitrile]: the IC50 came to 3 nM.

Consider `N#Cc1cc(Cl)cc2c1C[C@@H](Nc1ncc3c(n1)CN(CC(F)(F)F)C3=O)C2` [Example 10, (S)-6-chloro-2-((5-oxo-6-(2,2,2-trifluoroethyl)-6,7-dihydro-5H-pyrrolo[3,4-d]pyrimidin-2-yl)amino)-2,3-dihydro-1H-indene-4-carbonitrile], for which the IC50 was 2 nM.

Take `N#Cc1cc(Cl)cc2c1C[C@@H](Nc1ncc3c(n1)CN(C(CF)CF)C3=O)C2` [Example 26, (S)-6-chloro-2-((6-(1,3-difluoropropan-2-yl)-5-oxo-6,7-dihydro-5H-pyrrolo[3,4-d]pyrimidin-2-yl)amino)-2,3-dihydro-1H-indene-4-carbonitrile]: the half-maximal inhibitory concentration (IC50) is 4 nM.

Regarding `CC1(N2Cc3nc(N[C@H]4Cc5cc(Cl)cc(C#N)c5C4)ncc3C2=O)CC(F)(F)C1` [Example 6, (S)-6-chloro-2-((6-(3,3-difluoro-1-methylcyclobutyl)-5-oxo-6,7-dihydro-5H-pyrrolo[3,4-d]pyrimidin-2-yl)amino)-2,3-dihydro-1H-indene-4-carbonitrile], the 50% inhibitory concentration (IC50) turned out to be 4 nM.

For the molecule `N#Cc1cc(Cl)cc2c1C[C@@H](Nc1ncc3c(n1)CCN(C1CCOC1)C3=O)C2` (mixture of isomers) [Example 32, (S,S) and (S,R)-6-chloro-2-((5-oxo-6-(tetrahydrofuran-3-yl)-5,6,7,8-tetrahydropyrido[4,3-d]pyrimidin-2-yl)amino)-2,3-dihydro-1H-indene-4-carbonitrile], the IC50 is 4 nM.

As to `O=C1c2cnc(NC3Cc4ccc(Cl)cc4C3)nc2CN1C1CC(F)(F)C1` (stereo not shown) [Example 5, 2-((5-chloro-2,3-dihydro-1H-inden-2-yl)amino)-6-(3,3-difluorocyclobutyl)-6,7-dihydro-5H-pyrrolo[3,4-d]pyrimidin-5-one], the IC50 was 49 nM.

For the molecule `N#Cc1cc(Cl)cc2c1C[C@@H](Nc1ncc3c(n1)CCN(C1CCOCC1)C3=O)C2` [Example 29, (S)-6-chloro-2-((5-oxo-6-(tetrahydro-2H-pyran-4-yl)-5,6,7,8-tetrahydropyrido[4,3-d]pyrimidin-2-yl)amino)-2,3-dihydro-1H-indene-4-carbonitrile], the IC50 stood at 4 nM.

In the case of `N#Cc1cc(Cl)cc2c1C[C@@H](Nc1ncc3c(n1)CCNC3=O)C2` [Example 27, (S)-6-chloro-2-((5-oxo-5,6,7,8-tetrahydropyrido[4,3-d]pyrimidin-2-yl)amino)-2,3-dihydro-1H-indene-4-carbonitrile], the IC50 came out at 3 nM.

As for `N#Cc1cc(Cl)cc2c1C[C@@H](Nc1ncc3c(n1)CNC3=O)C2` [Example 35, (S)-6-chloro-2-((5-oxo-6,7-dihydro-5H-pyrrolo[3,4-d]pyrimidin-2-yl)amino)-2,3-dihydro-1H-indene-4-carbonitrile], the IC50 amounted to 2 nM.

As for `N#Cc1cc(Cl)cc2c1C[C@@H](Nc1ncc3c(n1)CCN(CC1CC1)C3=O)C2` [Example 31, (S)-6-chloro-2-((6-(cyclopropylmethyl)-5-oxo-5,6,7,8-tetrahydropyrido[4,3-d]pyrimidin-2-yl)amino)-2,3-dihydro-1H-indene-4-carbonitrile], the 50% inhibitory concentration (IC50) was determined as 2 nM.

For `CCN1CCc2nc(N[C@H]3Cc4cc(Cl)cc(C#N)c4C3)ncc2C1=O` [Example 34, (S)-6-chloro-2-((6-ethyl-5-oxo-5,6,7,8-tetrahydropyrido[4,3-d]pyrimidin-2-yl)amino)-2,3-dihydro-1H-indene-4-carbonitrile], the IC50 is 3 nM.

For the molecule `N#Cc1cc(Cl)cc2c1C[C@@H](Nc1ncc3c(n1)CN([C@H]1C[C@H](O)C1)C3=O)C2` [Example 19], the IC50 came to 5 nM.

Turning to `O=C1c2cnc(NC3Cc4ccc(Cl)cc4C3)nc2CN1C1COC1` (stereo not shown) [Example 1, 2-((5-chloro-2,3-dihydro-1H-inden-2-yl)amino)-6-(oxetan-3-yl)-6,7-dihydro-5H-pyrrolo[3,4-d]pyrimidin-5-one], the IC50 stood at 150 nM.

As to `N#Cc1cc(Cl)cc2c1C[C@@H](Nc1ncc3c(n1)CCN(CC(F)(F)F)C3=O)C2` [Example 36, (S)-6-chloro-2-((5-oxo-6-(2,2,2-trifluoroethyl)-5,6,7,8-tetrahydropyrido[4,3-d]pyrimidin-2-yl)amino)-2,3-dihydro-1H-indene-4-carbonitrile], the IC50 was found to be 3 nM.

As for `CC1(CN2Cc3nc(N[C@H]4Cc5cc(Cl)cc(C#N)c5C4)ncc3C2=O)COC1` [Example 28, (S)-6-chloro-2-((6-((3-methyloxetan-3-yl)methyl)-5-oxo-6,7-dihydro-5H-pyrrolo[3,4-d]pyrimidin-2-yl)amino)-2,3-dihydro-1H-indene-4-carbonitrile], the IC50 is 6 nM.

In the case of `N#Cc1cc(Cl)cc2c1C[C@@H](Nc1ncc3c(n1)CN(C1CCOCC1)C3=O)C2` [Example 9, (S)-6-chloro-2-((5-oxo-6-(tetrahydro-2H-pyran-4-yl)-6,7-dihydro-5H-pyrrolo[3,4-d]pyrimidin-2-yl)amino)-2,3-dihydro-1H-indene-4-carbonitrile], the IC50 was found to be 5 nM.

For the molecule `N#Cc1cc(Cl)cc2c1C[C@@H](Nc1ncc3c(n1)CN(C1CCOC1)C3=O)C2` (mixture of isomers) [Example 11, (S,S) and (S,R)-6-chloro-2-((5-oxo-6-(tetrahydrofuran-3-yl)-6,7-dihydro-5H-pyrrolo[3,4-d]pyrimidin-2-yl)amino)-2,3-dihydro-1H-indene-4-carbonitrile], the IC50 worked out at 6 nM.
